Experimental data taken from patent publication US9278962B2 (Cytokinetics, Inc., priority 2011, dated 2016).

System: rabbit skeletal myofibrils (approximately 90% fast fibers)
Assay: Activation of fast skeletal myofibrils (PUMA coupled-enzyme ATPase assay, AC1.4)
Type: biochemical
Details: concentration at which the compound increased enzymatic activity by 40%, calcium at pCa25

Fc1cccnc1[C@]1(CNc2nnc(-c3ccc(Br)s3)s2)C[C@@H](F)C1 [5-(5-bromothiophen-2-yl)-N-(((trans)-3-fluoro-1-(3-fluoropyridin-2-yl)cyclobutyl)methyl)-1,3,4-thiadiazol-2-amine]
Mean AC1.4 (Table 3): B (B=1-10 uM)

CCOC(=O)CCc1nsc(NCC(C)(C)c2ccc(F)cc2)n1 [ethyl 3-(5-{[2-(4-fluorophenyl)-2-methylpropyl]amino}-1,2,4-thiadiazol-3-yl)propanoate]
Mean AC1.4 (Table 2): B (B=1-10 uM)

CC(C)(CNc1nc2cccc(C(N)=O)c2s1)c1ccc(F)cc1 [2-(2-(4-fluorophenyl)-2-methylpropylamino)benzo[d] thiazole-7-carboxamide]
Mean AC1.4 (Table 4): B (B=1-10 uM)

CC(CNc1nc(Cc2ccc(F)cc2)ns1)c1ccc(Cl)cc1 (centres unmarked) [[2-(4-chlorophenyl)propyl]{3-[(4-fluorophenyl)methyl](1,2,4-thiadiazol-5-yl)}amine]
Mean AC1.4 (Table 2): B (B=1-10 uM)

Cc1ccsc1-c1nnc(NC[C@]2(c3ncccc3F)C[C@H](F)C2)s1 [N-(((trans)-3-fluoro-1-(3-fluoropyridin-2-yl)cyclobutyl)methyl)-5-(3-methylthiophen-2-yl)-1,3,4-thiadiazol-2-amine]
Mean AC1.4 (Table 3): B (B=1-10 uM)

CC(C)(CNc1nc2cccc(Cl)c2s1)c1ccc(F)cc1 [7-chloro-N-(2-(4-fluorophenyl)-2-methylpropyl)benzo[d]thiazol-2-amine]
Mean AC1.4 (Table 4): B (B=1-10 uM)

COc1ccc(CCNc2nc(Cc3ccc(F)cc3)ns2)cc1 [{3-[(4-fluorophenyl)methyl](1,2,4-thiadiazol-5-yl)}[2-(4-methoxyphenyl)ethyl]amine]
Mean AC1.4 (Table 2): D (D=>20 uM)

Fc1ccc(Cc2nsc(NCc3ccc(Cl)cc3)n2)cc1 [[(4-chlorophenyl)methyl]{3-[(4-fluorophenyl)methyl])1,2,4-thiadiazol-5-yl)}amine]
Mean AC1.4 (Table 2): D (D=>20 uM)

Cc1ccc(Br)cc1-c1nnc(NC[C@]2(c3ncccc3F)C[C@@H](F)C2)s1 [5-(5-bromo-2-methylphenyl)-N-(((cis)-3-fluoro-1-(3-fluoropyridin-2-yl)cyclobutyl)methyl)-1,3,4-thiadiazol-2-amine]
Mean AC1.4 (Table 3): A (A=<1 uM)

Fc1ccc(Br)cc1-c1nnc(NC[C@]2(c3ncccc3F)C[C@H](F)C2)s1 [5-(5-bromo-2-fluorophenyl)-N-(((trans)-3-fluoro-1-(3-fluoropyridin-2-yl)cyclobutyl)methyl)-1,3,4-thiadiazol-2-amine]
Mean AC1.4 (Table 3): A (A=<1 uM)

Fc1cccnc1C1(CNc2nnc(-c3ccccc3)o2)CCC1 [N-((1-(3-fluoropyridin-2-yl)cyclobutyl)methyl)-5-phenyl-1,3,4-oxadiazol-2-amine]
Mean AC1.4 (Table 5): D (D=>20 uM)

CC(C)(CNc1nc(CCC(N)=O)ns1)c1ccc(F)cc1 [3-(5-{[2-(4-fluorophenyl)-2-methylpropyl]amino}-1,2,4-thiadiazol-3-yl)propanamide]
Mean AC1.4 (Table 2): C (C=10-20 uM)

CC(Cc1ccc(Cl)cc1)Nc1nc(Cc2ccc(F)cc2)ns1 (centres unmarked) [[2-(4-chlorophenyl)-isopropyl]{3-[(4-fluorophenyl)methyl](1,2,4-thiadiazol-5-yl)}amine]
Mean AC1.4 (Table 2): D (D=>20 uM)

CC(C)(CNc1nc(-c2ccc(F)cc2)ns1)c1ccc(F)cc1 [[3-(4-fluorophenyl)(1,2,4-thiadiazol-5-yl)][2-(4-fluorophenyl)-2-methylpropyl]amine]
Mean AC1.4 (Table 2): B (B=1-10 uM)

CC(C)(CNc1nc(-c2cccnc2)ns1)c1ccc(F)cc1 [[2-(4-fluorophenyl)-2-methylpropyl](3-(3-pyridyl)(1,2,4-thiadiazol-5-yl))amine]
Mean AC1.4 (Table 2): B (B=1-10 uM)

COc1ccc(Cc2nsc(NCC(C)(C)c3ccc(Cl)cc3)n2)cc1 [[2-(4-chlorophenyl)-2-methylpropyl]{3-[(4-methoxyphenyl)methyl](1,2,4-thiadiazol-5-yl)}amine]
Mean AC1.4 (Table 2): A (A=<1 uM)

CC(C)(CNc1nc(CN2CCC(O)CC2)ns1)c1ccc(F)cc1 [1-[(5-{[2-(4-fluorophenyl)-2-methylpropyl]amino}-1,2,4-thiadiazol-3-yl)methyl]piperidin-4-ol]
Mean AC1.4 (Table 2): D (D=>20 uM)
